In US9663473B2 (Actelion Pharmaceuticals Ltd, priority 2013, dated 2017) one finds EC50 data, which are given here for 23 compounds.

The target in this test is T1, recombinant human ALX receptor (Homo sapiens, UniProt P25090).
T1 construct: expressed in transfected cells; host or cells: HEK293 (HEK293-hALXR-Gα16)
T1 sequence (P25090 1-351): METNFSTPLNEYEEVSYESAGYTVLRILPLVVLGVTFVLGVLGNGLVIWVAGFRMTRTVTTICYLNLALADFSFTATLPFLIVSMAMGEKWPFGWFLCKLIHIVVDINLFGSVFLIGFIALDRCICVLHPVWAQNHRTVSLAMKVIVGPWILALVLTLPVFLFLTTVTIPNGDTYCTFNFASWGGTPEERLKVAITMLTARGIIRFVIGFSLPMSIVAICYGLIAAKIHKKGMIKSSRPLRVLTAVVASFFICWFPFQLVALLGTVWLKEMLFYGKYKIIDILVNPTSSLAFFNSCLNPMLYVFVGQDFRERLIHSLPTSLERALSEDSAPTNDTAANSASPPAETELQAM
The experiment in a line: Intracellular calcium measurements (FLIPR), ALX receptor agonistic activity. The note with it: HEK293-hALXR-Gα16 cells, Fluo-4 calcium signal, normalized to WKYMVm 10 nM. Format: cell-based. The procedure, abridged:
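Agonist-induced calcium flux was read by FLIPR (488/540 nm) as baseline-subtracted peak emission, expressed relative to WKYMVm at 10 nM final. Cells used: HEK293-hALXR-Gα16, dye-loaded 60 min at 37° C. with 1 μM Fluo-4 AM before compound dose-response addition.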
As to `COc1ccc(C[C@@H](NC(=O)NCCCO)c2nc3ccccc3[nH]2)cc1` [Example 95, (R)-1-(1-(1H-Benzo[d]imidazol-2-yl)-2-(4-methoxyphenyl)ethyl)-3-(3-hydroxypropyl)urea], the EC50 came to 195 nM. The result for `COc1ccc(CC(NC(=O)N[C@H]2CC[C@](C)(O)CC2)c2nc3ccccc3[nH]2)c(F)c1F` (mixture of isomers) [Example 252, 1-(1-(1H-Benzo[d]imidazol-2-yl)-2-(2,3-difluoro-4-methoxyphenyl)ethyl)-3-(trans-4-hydroxy-4-methylcyclohexyl)urea] reads 17 nM; that for `COc1ccc(C[C@@H](NC(=O)NCCN2CCN(C(=O)OC(C)(C)C)CC2)c2nc3ccccc3[nH]2)cc1` [Example 144, (R)-tert-Butyl 4-(2-(3-(1-(1H-benzo[d]imidazol-2-yl)-2-(4-methoxyphenyl)ethyl)ureido)ethyl)piperazine-1-carboxylate], 947 nM; that for `COc1ccc(C[C@@H](NC(=O)N[C@H]2CCC[C@@H]2O)c2nc3ccccc3[nH]2)cc1` [Example 115, 1-((R)-1-(1H-Benzo[d]imidazol-2-yl)-2-(4-methoxyphenyl)ethyl)-3-((1S,2S)-2-hydroxycyclopentyl)urea], 143 nM.

Take `C[C@]1(O)CC[C@H](NC(=O)NC(Cc2ccc(Br)cc2F)c2nc3ccccc3[nH]2)CC1` (mixture of isomers) [Example 253, 1-(1-(1H-Benzo[d]imidazol-2-yl)-2-(4-bromo-2-fluorophenyl)ethyl)-3-(trans-4-hydroxy-4-methylcyclohexyl)urea]: the half-maximal effective concentration (EC50) stood at 25 nM. The result for `COc1ccc(C[C@@H](NC(=O)NC(C)(C)c2ccccc2)c2nc3ccccc3[nH]2)cc1` [Example 350, (R)-1-(1-(1H-Benzo[d]imidazol-2-yl)-2-(4-methoxyphenyl)ethyl)-3-(2-phenylpropan-2-yl)urea] reads 288 nM. Regarding `COc1ccc(C(C)(C)C(NC(=O)N[C@H]2CC[C@H](O)CC2)c2nc3ccccc3[nH]2)cc1` (relative stereo) [Example 3, 1-(1-(1H-Benzo[d]imidazol-2-yl)-2-(4-methoxyphenyl)-2-methylpropyl)-3-(trans-4-hydroxycyclohexyl)urea], the EC50 was found to be 119 nM.

In the case of `COc1ccc(C[C@@H](NC(=O)N[C@@H](CO)Cc2ccccc2)c2nc3ccccc3[nH]2)cc1` [Example 205, 1-((R)-1-(1H-Benzo[d]imidazol-2-yl)-2-(4-methoxyphenyl)ethyl)-3-((R)-1-hydroxy-3-phenylpropan-2-yl)urea], the 50% effective concentration (EC50) amounted to 62 nM. With `O=C(NC(Cc1ccc(Br)c(F)c1)c1nc2ccccc2[nH]1)NC12CCC(O)(CC1)CC2` (centres unmarked) [Example 230, 1-(1-(1H-Benzo[d]imidazol-2-yl)-2-(4-bromo-3-fluorophenyl)ethyl)-3-(4-hydroxybicyclo[2.2.2]octan-1-yl)urea], the concentration for a half-maximal effect (EC50) turned out to be 21 nM. As for `COc1ccc(CC(NC(=O)N[C@H]2CC[C@H](O)CC2)c2nc3ccccc3[nH]2)cc1F` (relative stereo) [Example 167, 1-(1-(1H-Benzo[d]imidazol-2-yl)-2-(3-fluoro-4-methoxyphenyl)ethyl)-3-(trans-4-hydroxycyclohexyl)urea], the EC50 is 9.5 nM.

For the compound `COc1ccc(CC(NC(=O)Nc2ccnn2-c2ccc(C)cc2)c2nc3ccccc3[nH]2)cc1` (centres unmarked) [Example 420, 1-(1-(1H-benzo[d]imidazol-2-yl)-2-(4-methoxyphenyl)ethyl)-3-(1-(p-tolyl)-1H-pyrazol-5-yl)urea], the EC50 is 207 nM. Turning to `O=C(NC(Cc1ccc(C(F)(F)F)c(F)c1)c1nc2ccccc2[nH]1)N[C@H]1CC[C@H](O)CC1` (relative stereo) [Example 237, 1-(1-(1H-Benzo[d]imidazol-2-yl)-2-(3-fluoro-4-(trifluoromethyl)phenyl)ethyl)-3-(trans-4-hydroxycyclohexyl)urea], the concentration for a half-maximal effect (EC50) came out at 36 nM. The result for `COc1ccc(CC(NC(=O)Nc2ccccc2)c2nc3ccccc3[nH]2)cc1` (centres unmarked) [Example 169, 1-(1-(1H-Benzo[d]imidazol-2-yl)-2-(4-methoxyphenyl)ethyl)-3-phenylurea] reads 51 nM; that for `COc1ccc(CC(NC(=O)N[C@H]2CC[C@H](O)CC2)c2nc3ccc(Br)cc3[nH]2)cc1` (relative stereo) [Example 424, 1-(1-(6-bromo-1H-benzo[d]imidazol-2-yl)-2-(4-methoxyphenyl)ethyl)-3-(trans-4-hydroxycyclohexyl)urea], 0.8 nM.

`COc1ccc(C[C@@H](NC(=O)NC(C)(C)c2ccc(C)cc2)c2nc3ccccc3[nH]2)cc1` [Example 270, (R)-1-(1-(1H-Benzo[d]imidazol-2-yl)-2-(4-methoxyphenyl)ethyl)-3-(2-(p-tolyl)propan-2-yl)urea]: the EC50 came out at 225 nM. With `COc1ccc(C[C@@H](NC(=O)NC2CCN(C(=O)OC(C)(C)C)C2)c2nc3ccccc3[nH]2)cc1` (stereo partly drawn) [Example 93, tert-butyl 3-(3-((R)-1-(1H-Benzo[d]imidazol-2-yl)-2-(4-methoxyphenyl)ethyl)ureido)pyrrolidine-1-carboxylate], the EC50 was found to be 16 nM.

`COc1ccc(CC(NC(=O)NC2CCC2)c2nc3ccccc3[nH]2)cc1` (centres unmarked) [Example 11, 1-(1-(1H-Benzo[d]imidazol-2-yl)-2-(4-methoxyphenyl)ethyl)-3-cyclobutylurea]: the concentration giving a half-maximal response (EC50) is 62 nM. In the case of `COc1ccc(C[C@@H](NC(=O)N[C@H]2CC[C@H](O)c3ccccc32)c2nc3ccccc3[nH]2)cc1` (relative stereo) [Example 134, 1-((R)-1-(1H-Benzo[d]imidazol-2-yl)-2-(4-methoxyphenyl)ethyl)-3-((1 S*,4S*)-4-hydroxy-1,2,3,4-tetrahydronaphthalen-1-yl)urea] it was 107 nM; in that of `COc1ccc(C[C@@H](NC(=O)N[C@H](C)[C@@H](O)c2ccccc2)c2nc3ccccc3[nH]2)cc1` [Example 209, 1-((R)-1-(1H-Benzo[d]imidazol-2-yl)-2-(4-methoxyphenyl)ethyl)-3-((1S,2R)-1-hydroxy-1-phenylpropan-2-yl)urea], 1.5 nM; in that of `CC(C)(C)c1ccc(CC(NC(=O)N[C@H]2CC[C@H](O)CC2)c2nc3ccccc3[nH]2)cc1` (relative stereo) [Example 79, 1-(1-(1H-Benzo[d]imidazol-2-yl)-2-(4-(tert-butyl)phenyl)ethyl)-3-(trans-4-hydroxycyclohexyl)urea], 707 nM. With `COc1ccc(C[C@@H](NC(=O)NCc2cccc(C(F)(F)F)c2Cl)c2nc3ccccc3[nH]2)cc1` [Example 273, (R)-1-(1-(1H-Benzo[d]imidazol-2-yl)-2-(4-methoxyphenyl)ethyl)-3-(2-chloro-3-(trifluoromethyl)benzyl)urea], the concentration giving a half-maximal response (EC50) was 234 nM. In the case of `COc1ccc(C[C@@H](NC(=O)NC2CN3CCC2CC3)c2nc3ccc(C#N)cc3[nH]2)cc1` (stereo partly drawn) [Example 154, 1-((R)-1-(6-Cyano-1H-benzo[d]imidazol-2-yl)-2-(4-methoxyphenyl)ethyl)-3-(quinuclidin-3-yl)urea], the EC50 was determined as 6.8 nM. In the case of `COc1ccc(C[C@@H](NC(=O)NC2(c3cccc(Cl)c3)CC2)c2nc3ccccc3[nH]2)cc1` [Example 283, (R)-1-(1-(1H-Benzo[d]imidazol-2-yl)-2-(4-methoxyphenyl)ethyl)-3-(1-(3-chlorophenyl)cyclopropyl)urea] it was 295 nM.
